In patent US20070289889A1, “Biomarkers For The Prediction Of Drug-In Duced Diarrhea” (NOVARTIS AG, priority 2003, published 2007):
Several values for one entry are separate records, joined by “and”; a condition that tells them apart may be missing. Equal entries are not always repeated.

How the values were obtained:
[1] = system: white blood cells; test: mRNA expression profiling (Affymetrix U95A) of white blood cells, baseline vs. treated; format: in vivo, human
Experimental: (§1) Samples. Forty-three out of the ninety-one subjects who enrolled in the clinical trial consented to clinical pharmacogenetics analysis. For each subject, two clinical pharmacogenetics blood samples were scheduled: baseline and on Day 2 of Week 1 at hour 24. White blood cell (WBC) pellets were ficoll-hypaque separated from the whole blood by the investigator, frozen at −80° C. mRNA was extracted and profiled on the Affymetrix U95A GeneChip® platform.
(§2) mRNA expression profiling analysis. Any array with greater than 20% of genes called present by the Affymetrix MAS5 algorithm was a candidate for the analyses described herein. Affymetrix, “New statistical algorithms for monitoring gene expression on GeneChip® probe arrays.” Affymetrix Technical Notes. (2001). […] Forty-two out of the possible eighty-six arrays met the quality standards needed for analysis.
(§3) Statistical analysis. Fisher's Exact tests were performed to compare the demographics of the clinical pharmacogenetics participants to the overall trial population. An analysis of variance (ANOVA) was used to determine whether mRNA gene expression patterns correlated to either treatment status (baseline vs. treated), to experiencing diarrhoea (no diarrhoea vs. diarrhoea) or to whether specific blood cell type levels correlated to experiencing diarrhoea. All statistical analyses were performed using the SigmaStat 2.03 and SAS 8.02 programs.
Analysis of baseline vs. treated mRNA profiles by treatment group. To determine if gene expression in white blood cells was altered by epothilone B at 24 hours after treatment, a comparison between baseline and treated expression profiles was performed.

[2] = system: adult patients with advanced solid tumours; test: Phase I open-label dose-escalation trial, maximum tolerated dose and diarrhoea; format: in vivo, human
Experimental: A group of eleven genes were identified as having statistically significant differences in expression levels when comparing the test samples to their respective baseline samples. […] These genes were identified following a […] dose-finding clinical trial, which was undertaken in which epothilone B was administered weekly to adult patients with advanced solid tumours. A clinical pharmacogenetics (CPG) analysis identified biomarker candidates for the incidence of epothilone B-induced diarrhoea. The analysis also identified genomic-based factors (such as mRNA expression profiles) that are associated with the incidence of epothilone B-induced diarrhoea.
The maximum tolerated dose (MTD) for a compound is determined using methods and materials known in the medical and pharmacological arts, for example through dose-escalation experiments. One or more patients is first treated with a low dose of the compound, typically 10% of the dose anticipated to be therapeutic based on results of in vitro cell culture experiments. The patients are observed for a period of time to determine the occurrence of toxicity. Toxicity is typically evidenced as the observation of one or more of the following symptoms: vomiting, diarrhoea, peripheral neuropathy, ataxia, neutropaenia, or elevation of liver enzymes. If no toxicity is observed, the dose is increased 2-fold, and the patients are again observed for evidence of toxicity. This cycle is repeated until a dose producing evidence of toxicity is reached. The dose immediately preceding the onset of unacceptable toxicity is taken as the […]. A determination of the MTD for epothilone B is provided above.
Clinical trial design. This clinical trial was an open-label, dose-escalation trial using a standard Phase I protocol design (3+3 design) of enrolling three-six patients per cohort to establish the maximum tolerated dose. Peripheral whole blood was collected from patients that consented to clinical pharmacogenetics analysis. Two clinical pharmacogenetics blood samples were scheduled: baseline and on Day 2 of Week 1 at hour 24. The core treatment period consisted of two nine-week cycles of weekly intravenous administrations of epothilone B as tolerated by haematologic and other toxicities. The doses of epothilone B used in this trial were 0.3, 0.5, 0.75, 1.1, 1.85, 2.5, 3.0 and 3.6 mg/m^2.
Clinical pharmacogenetics subjects used for the analysis. Epothilone B was administered to subjects as a single intravenous infusion over five minutes in a maximum volume of 20 ml either every week for up to six weeks followed by a three-week wash-out period, or every week for three weeks followed by one week without treatment. The 2.5 mg/m^2 treatment was considered to be the maximum tolerated dose (MTD). Therefore, twenty clinical pharmacogenetics participants who were in the 2.5, 3.0 and 3.6 mg/m^2 treatment groups and whose arrays met the quality standards were used. The rationale behind this decision was based on the assumption that those genes whose expression was affected by the 2.5 mg/m^2 treatment would be more pronounced in 3.0 and 3.6 mg/m^2 treatment groups.
(§4) Because there were only three subjects who experienced grade 3 diarrhoea, all fifteen subjects who experienced any grade of diarrhoea were grouped together to strengthen the statistical power of this analysis.

[3] = system: white blood cells; test: mRNA expression profiles of white blood cells after treatment, no diarrhoea vs. diarrhoea subjects; format: in vivo, human; conditions: treated; for Signal Value 297_g_at (Tubulin, beta) / Signal Value 477_at (IRF5) / Signal Value 1274_s_at (CDC34) / Signal Value 33336_at (SLC4A1) / Signal Value 33759_at (BPGM) / Signal Value 37285_at (ALAS2) / Signal Value 37405_at (SELENBP1) / Signal Value 39436_at (BNIP3L): average of arrays
Experimental: as §1, §2, §3, §4
A comparison of the mRNA expression profiles of white blood cells identified eight genes with statistically significant differences between the two groups of subjects 24 hours after epothilone B administration. See, TABLE 3.
Compare, TABLE 8 and TABLE 13.

[4] = system: drug-sensitive and multidrug-resistant cells overexpressing P-glycoprotein; conditions: cited from earlier work
[5] = CPG subjects, grade 1 diarrhoea
[6] = of twenty CPG subjects, 2.5, 3.0 and 3.6 mg/m^2, irregardless of dose
[7] = 24 hours, any grade of diarrhoea

SMILES: C/C(=C\c1csc(C)n1)[C@@H]1C[C@@H]2O[C@]2(C)CCC[C@H](C)[C@H](O)[C@@H](C)C(=O)C(C)(C)[C@@H](O)CC(=O)O1 [epothilone B, Epothilone B]
- number of genes with statistically significant changes in expression, treated vs. baseline ([1]; 3.6 mg/m^2 treatment, 24 hours): eleven
- genes with statistically significant expression differences, treated vs. baseline ([1]; 2.5 and 3.0 mg/m^2 treatments, 24 hours): No genes with statistically significant differences were identified
- genes with statistically significant expression differences, treated vs. baseline ([1]; all treated samples combined, 24 hours after treatment): no genes with statistically significant differences were identified
- mean time of experiencing the first episode of diarrhoea after receiving dose ([2]; CPG subjects): 37 days
- maximum time to first episode of diarrhoea [2, 5]: 304 days
- minimum time to first episode of diarrhoea [2, 5]: 6 days
- mean onset of diarrhoea after the scheduled blood draw ([2]; clinical pharmacogenetics (CPG) subjects): 371 ± 18 days
- subjects who experienced grade 3 diarrhoea ([2]; of twenty CPG subjects, 2.5, 3.0 and 3.6 mg/m^2): three
- subjects who did not experience diarrhoea [2, 6]: five
- subjects who experienced any grade of diarrhoea [2, 6]: fifteen
- maximum tolerated dose (MTD) ([2]; weekly intravenous infusion over five minutes): 2.5 mg/m^2
- Fold Change [diarrhoea/no diarrhoea] ALAS2 (37285_at) mRNA [3, 7]: −9.6
- Fold Change [diarrhoea/no diarrhoea] BNIP3L (39436_at) mRNA [3, 7]: −2.8
- Fold Change [diarrhoea/no diarrhoea] BPGM (33759_at) mRNA [3, 7]: −4.9
- Fold Change [diarrhoea/no diarrhoea] CDC34 (1274_s_at) mRNA [3, 7]: −2.2
- Fold Change [diarrhoea/no diarrhoea] IRF5 (477_at) mRNA [3, 7]: 2.9
- Fold Change [diarrhoea/no diarrhoea] SELENBP1 (37405_at) mRNA [3, 7]: −11.3
- Fold Change [diarrhoea/no diarrhoea] SLC4A1 (33336_at) mRNA [3, 7]: −15.3
- Fold Change [diarrhoea/no diarrhoea] Tubulin, beta (297_g_at) mRNA [3, 7]: −3.9
- Signal Value 297_g_at (Tubulin, beta) ([3]; Diarrhoea (any grade) subjects): 59
- Signal Value 477_at (IRF5) ([3]; Diarrhoea (any grade) subjects): 278
- Signal Value 1274_s_at (CDC34) ([3]; Diarrhoea (any grade) subjects): 128
- Signal Value 33336_at (SLC4A1) ([3]; Diarrhoea (any grade) subjects): 93
- Signal Value 33759_at (BPGM) ([3]; Diarrhoea (any grade) subjects): 70
- Signal Value 37285_at (ALAS2) ([3]; Diarrhoea (any grade) subjects): 448
- Signal Value 37405_at (SELENBP1) ([3]; Diarrhoea (any grade) subjects): 106
- Signal Value 39436_at (BNIP3L) ([3]; Diarrhoea (any grade) subjects): 1476
- Signal Value 297_g_at (Tubulin, beta) ([3]; No Diarrhoea subjects): 232
- Signal Value 477_at (IRF5) ([3]; No Diarrhoea subjects): 97
- Signal Value 1274_s_at (CDC34) ([3]; No Diarrhoea subjects): 278
- Signal Value 33336_at (SLC4A1) ([3]; No Diarrhoea subjects): 1421 and 1422
- Signal Value 33759_at (BPGM) ([3]; No Diarrhoea subjects): 344
- Signal Value 37285_at (ALAS2) ([3]; No Diarrhoea subjects): 4292
- Signal Value 37405_at (SELENBP1) ([3]; No Diarrhoea subjects): 1200
- Signal Value 39436_at (BNIP3L) ([3]; No Diarrhoea subjects): 4200
- Fold Change [diarrhoea/no diarrhoea] 297_g_at (Tubulin, beta) ([3]; grade 3 diarrhoea): −3.0
- Fold Change [diarrhoea/no diarrhoea] 477_at (IRF5) ([3]; grade 3 diarrhoea): ^f2.7
- Fold Change [diarrhoea/no diarrhoea] 1274_s_at (CDC34) ([3]; grade 3 diarrhoea): −2.3
- Fold Change [diarrhoea/no diarrhoea] 33336_at (SLC4A1) ([3]; grade 3 diarrhoea): −15.9
- Fold Change [diarrhoea/no diarrhoea] 33759_at (BPGM) ([3]; grade 3 diarrhoea): ^f−6.7
- Fold Change [diarrhoea/no diarrhoea] 37285_at (ALAS2) ([3]; grade 3 diarrhoea): −10.0
- Fold Change [diarrhoea/no diarrhoea] 37405_at (SELENBP1) ([3]; grade 3 diarrhoea): ^f−10.3
- Fold Change [diarrhoea/no diarrhoea] 39436_at (BNIP3L) ([3]; grade 3 diarrhoea): −2.8
- Signal Value 297_g_at (Tubulin, beta) ([3]; grade 3 diarrhoea subjects): 77
- Signal Value 477_at (IRF5) ([3]; grade 3 diarrhoea subjects): 264
- Signal Value 1274_s_at (CDC34) ([3]; grade 3 diarrhoea subjects): 123
- Signal Value 33336_at (SLC4A1) ([3]; grade 3 diarrhoea subjects): 90
- Signal Value 33759_at (BPGM) ([3]; grade 3 diarrhoea subjects): 51
- Signal Value 37285_at (ALAS2) ([3]; grade 3 diarrhoea subjects): 428
- Signal Value 37405_at (SELENBP1) ([3]; grade 3 diarrhoea subjects): 113
- Signal Value 39436_at (BNIP3L) ([3]; grade 3 diarrhoea subjects): 1489
- cytotoxicity, drug-sensitive vs. multidrug-resistant cells [4]: equally cytotoxic
